How the values were obtained:
PPARα-LBD [1] = target: T1, PPARα-LBD (Homo sapiens, UniProt Q07869); assay: TR-FRET PGC1α coactivator recruitment assay; assay type: biochemical; design: Human PPARα-LBD (amino acids 200–468); made in house; host or cells: Rosetta (DE3) pLysS (E. coli); conditions: PGC1α peptide, read-out: EC50, PGC1α recruitment to PPARα-LBD
T1 sequence (Q07869 200-468): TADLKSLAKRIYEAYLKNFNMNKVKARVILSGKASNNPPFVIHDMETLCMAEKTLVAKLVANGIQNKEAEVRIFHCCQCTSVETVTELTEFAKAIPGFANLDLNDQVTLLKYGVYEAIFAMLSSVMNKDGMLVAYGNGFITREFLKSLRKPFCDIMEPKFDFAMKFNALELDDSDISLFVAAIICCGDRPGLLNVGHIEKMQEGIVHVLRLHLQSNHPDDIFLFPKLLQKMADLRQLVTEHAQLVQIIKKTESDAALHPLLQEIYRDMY
Description: (§1) Subsequently, 5 µL of 4 nM Eu-W1024-labeled anti-6×His antibody/80 nM ULight-Streptavidin (PerkinElmer) was added to each well, and the microplate was incubated in the dark for 2 h, at room temperature. […] The nonlinear fitting and the calculation of the EC50 were performed using the Prism 9 software (GraphPad, San Diego, CA, USA).
(§2) The ligand-bound activated forms of PPARs are stabilized by associations with specific coactivators, thereby enabling the regulation of specific gene expression.
(§3) Figure 2 TR-FRET-based LBD-mediated human PPARα/δ/γ coactivator recruitment assay. […] Data are presented as the mean ± SE of three or four independent experiments with duplicate samples, and the calculated EC50 values are shown.

PPARα-LBD [2] = target: T1, PPARα-LBD; assay: Thermal stability assay using circular dichroism spectroscopy; assay type: binding; design: Human PPARα-LBD (amino acids 200–468); His tag (pET28a) (N); made in house; host or cells: Rosetta (DE3) pLysS (E. coli); conditions: CD at 222 nm; 10 µM LBD; GW7647 at 10 µM
Description: (§4) PPARα/δ/γ-LBD proteins (10 µM) were incubated with different concentrations of ligands in buffer C consisting of 20 mM Tris-HCl (pH 8.0), 150 mM NaCl, 1 mM Tris 2-carboxyethylphosphine (TCEP)-HCl, and 10% glycerol. The circular dichroism (CD) spectra were monitored within a 200–260 nm range at increasing temperatures from 30 °C to 70 °C (2 °C/min) using a J-1500 spectropolarimeter equipped with a PTC-510 thermal controller (JASCO, Tokyo, Japan). […] The ligand-induced increases in the Tm values were defined as ∆Tm.
(§5) Nuclear receptors, including PPARs, display an increased thermal stability upon ligand binding, which is detectable through CD spectroscopy.
(§6) Figure 3 Circular dichroism-based PPARα/δ/γ-LBD thermal stability assay. […] Data are presented as the mean ± SE of three or four (in parentheses) independent experiments. Differences vs. basal levels (with 0.1% DMSO) were statistically assessed by one-way ANOVA, followed by a Dunnett’s post hoc test: * p < 0.05, ** p < 0.01, and *** p < 0.001.

PPARγ-LBD = target: T2, PPARγ-LBD (Homo sapiens, UniProt P37231); assay: as above; assay type: binding; design: PPARγ-LBD (amino acids 203–477 in isoform 1); His tag (pET28a) (N); made in house; host or cells: Rosetta (DE3) pLysS (E. coli); conditions: CD at 222 nm, 10 µM LBD; for Effect on Tm of PPARγ-LBD (in words): GW1929 at 10 µM
T2 sequence (P37231 203-477 isoform P37231-2): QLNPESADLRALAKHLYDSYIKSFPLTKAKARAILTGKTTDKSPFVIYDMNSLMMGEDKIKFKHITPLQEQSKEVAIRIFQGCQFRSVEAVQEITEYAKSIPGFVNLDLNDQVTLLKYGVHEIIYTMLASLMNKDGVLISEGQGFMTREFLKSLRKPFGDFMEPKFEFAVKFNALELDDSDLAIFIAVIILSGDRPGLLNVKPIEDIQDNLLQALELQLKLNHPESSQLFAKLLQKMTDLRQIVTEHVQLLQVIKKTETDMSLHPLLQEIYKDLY
Description: as §4, §5, §6

PPARδ-LBD = target: T3, PPARδ-LBD (Homo sapiens, UniProt Q03181); assay: TR-FRET PGC1α coactivator recruitment assay; assay type: biochemical; design: PPARδ-LBD (amino acids 170–441); made in house; host or cells: Rosetta (DE3) pLysS (E. coli); conditions: for EC50: TR-FRET, PGC1α peptide, read-out: EC50, PGC1α recruitment to PPARδ-LBD
T3 sequence (Q03181 170-441): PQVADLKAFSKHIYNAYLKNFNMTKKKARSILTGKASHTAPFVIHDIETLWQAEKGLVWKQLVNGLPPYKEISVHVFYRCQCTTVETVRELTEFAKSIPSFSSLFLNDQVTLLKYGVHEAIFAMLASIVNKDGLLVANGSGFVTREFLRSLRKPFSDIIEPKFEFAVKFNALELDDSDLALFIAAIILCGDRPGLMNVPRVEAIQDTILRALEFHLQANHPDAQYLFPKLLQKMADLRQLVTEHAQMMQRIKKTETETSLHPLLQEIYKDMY
Description: as §1, §2, §3

Row | SMILES | EC50 (PPARα-LBD [1]) [µM] | Effect on Tm of PPARα-LBD (in words) (PPARα-LBD [2]) | Effect on Tm of PPARγ-LBD (in words) (PPARγ-LBD) | EC50 (PPARδ-LBD) [µM] | Relative ∆Tm response, PPARγ-LBD (highest value) (PPARγ-LBD; 100% = ∆Tm by 10 µM GW1929) [%] | Efficacy, PGC1α recruitment to PPARδ-LBD (PPARδ-LBD; 100% = 1 µM GW501516) [%]
1 | CSc1ccc(C(=O)/C=C/c2cc(C)c(OC(C)(C)C(=O)O)c(C)c2)cc1 [elafibranor] | 6.93 | did not significantly alter the Tm values | did not significantly alter the Tm values | – | – | –
2 | O=C(O)CCCc1cc2cc(Cl)ccc2n1S(=O)(=O)c1ccc2ncsc2c1 [lanifibranor] | 10 | increased the Tm values | increased the Tm values | 3.86 | 61.4 | –
3 | CCO[C@@H](Cc1ccc(OCCn2c(C)ccc2-c2ccc(SC)cc2)cc1)C(=O)O [saroglitazar] | 4.11 | highly increased the Tm values | highly increased the Tm values | > 100 | – | –
4 | CCO[C@H](COc1ccc(C(F)(F)F)cc1)CSc1ccc(OCC(=O)O)c(C)c1 [seladelpar] | 3.84 | increased the Tm values | increased the Tm values | 0.0307 | – | 124

Source: publication PMC10451623 (Antioxidants, 2023)
